“Also recorded” adds a separate entry of the source.
What was measured:
[1] = tested on: patients with stable atherosclerotic vascular disease (coronary artery disease, peripheral arterial disease, or both); assay: COMPASS trial, net-clinical-benefit outcome; type: in vivo, human
Text: “Safe” for the methods disclosed herein may also be measured by the net clinical benefit of the inventive method or product compared to administration of aspirin alone. The net clinical benefit outcome consists of cardiovascular death, myocardial infarction, stroke, and fatal or critical organ bleeding.
Because the products and methods of the present invention involve medications that cause the desired reduction in the risk of myocardial infarction, stroke, or cardiovascular death yet also cause undesired bleeding, the “net clinical benefit” of the therapy is important to consider. The “net clinical benefit” composite is a positive benefit risk ratio that was derived using severe bleeding events (intracranial bleeding, fatal bleeding, and critical organ bleeding) as a component of the composite. In clinical studies, the risk of the composite net clinical benefit outcome of cardiovascular death, stroke, myocardial infarction, fatal bleeding or symptomatic bleeding into a critical organ was lower with twice-daily 2.5 mg rivaroxaban combined with once daily 100 mg aspirin (4.7%) than with aspirin alone (100 mg once daily) (5.9%), hazard ratio 0.80.
(§1) Study aspirin was enteric-coated.
(§2) Three secondary efficacy outcomes were specified: the composite of ischemic stroke, myocardial infarction, acute limb ischemia, or death from coronary heart disease; the composite of ischemic stroke, myocardial infarction, acute limb ischemia, or cardiovascular death; and death from any cause. Tertiary efficacy outcomes included individual components of the primary and secondary outcomes, as well as hospitalization for cardiovascular causes, revascularization, limb amputation, stent thrombosis, angina, heart failure, venous thromboembolism, resuscitated cardiac arrest, and a new diagnosis of cancer. The net-clinical-benefit outcome was the composite of cardiovascular death, stroke, myocardial infarction, fatal bleeding, or symptomatic bleeding into a critical organ.
(§3) All reported P values are two-sided.

[2] = tested on: patients with stable atherosclerotic vascular disease (coronary artery disease, peripheral arterial disease, or both); assay: COMPASS trial, efficacy outcomes; type: in vivo, human; settings: for participants reported to have atrial fibrillation who had a stroke: 26 of the 392 participants with atrial fibrillation; for primary outcome event of cardiovascular death, stroke, or myocardial infarction, number of patients / primary outcome event of cardiovascular death, stroke, or myocardial infarction, percentage of patients: rivaroxaban alone 5 mg twice daily, mean follow-up 23 months; for primary outcome / major adverse cardiovascular events compared with aspirin alone (in words): compared with aspirin alone 100 mg once daily
Experimental: Patients were eligible if they provided written informed consent and met the criteria for coronary artery disease, peripheral arterial disease, or both. Patients with coronary artery disease who were younger than 65 years of age were also required to have documentation of atherosclerosis involving at least two vascular beds or to have at least two additional risk factors (current smoking, diabetes mellitus, an estimated glomerular filtration rate (“GFR”)<60 ml per minute, heart failure, or nonlacunar ischemic stroke≥1 month earlier). Exclusion criteria were a high bleeding risk; a recent stroke or previous hemorrhagic or lacunar stroke; severe heart failure; advanced stable kidney disease (estimated GFR<15 ml per minute); the use of dual antiplatelet therapy, anticoagulation, or other antithrombotic therapy; and noncardiovascular conditions deemed by the investigator to be associated with a poor prognosis.
Eligible participants (except those who underwent randomization 4 to 14 days after coronary-artery bypass graft (“CABG”) surgery) entered a run-in phase during which they received a rivaroxaban-matched placebo twice daily and aspirin at a dose of 100 mg once daily. The purpose of the run-in phase was to identify participants who were unwilling or unable to adhere to the trial regimen, who had adverse events, or who were otherwise not suitable for randomization. Patients who underwent randomization 4 to 14 days after CABG surgery were not required to participate in the run-in phase because thrombotic graft occlusion is most common during the first few weeks after surgery and we sought to enroll such patients promptly.
as §1, §2
All the outcome events in all randomly assigned patients that occurred between randomization and the date of stopping the trial were included in the analysis, according to the intention-to-treat principle. An early stop of both antithrombotic treatment groups for efficacy had not been anticipated, and therefore a strategy for formal testing of secondary outcomes at the interim analysis was not prespecified.
as §3

[3] = tested on: patients with stable cardiovascular disease; settings: in vivo; cited from earlier work
[4] = tested on: patients with stable atherosclerotic vascular disease (coronary artery disease, peripheral arterial disease, or both); settings: human, in vivo, 23 months
Text: Adverse events that impact whether the inventive combinations and combination therapy are safe are adverse bleeding events that include, for example, major bleeding, minor bleeding, intracranial bleeding, and symptomatic bleeding into a critical organ. “Major bleeding” as used herein is a modification of the International Society on Thrombosis and Haemostasis (ISTH) criteria for major bleeding and includes fatal bleeding, symptomatic bleeding into a critical organ, bleeding into a surgical site requiring reoperation, and bleeding that led to hospitalization (including presentation to an acute care facility without an overnight stay). Unlike the ISTH criteria, all bleeding that led to presentation to an acute care facility or hospitalization is considered as major.
The COMPASS trial, conducted at 602 centers in 33 countries, is a double-blind, double-dummy, randomized trial using a 3-by-2 partial factorial design and involving patients with a history of stable atherosclerotic vascular disease. […]

[5] = tested on: patients with a recent acute coronary syndrome; settings: background of single or dual antiplatelet therapy, cited from earlier work
[6] = tested on: patients with stable peripheral arterial disease; settings: in vivo; cited from earlier work
[7] = tested on: patients with stable cardiovascular disease receiving single or dual antiplatelet therapy; settings: in vivo; cited from earlier work
[8] = rivaroxaban 2.5 mg twice daily + aspirin 100 mg once daily, aspirin alone 100 mg once daily

SMILES: CC(=O)Oc1ccccc1C(=O)O [aspirin alone, acetylsalicylic acid]
- composite net-clinical-benefit outcome of cardiovascular death, stroke, myocardial infarction, fatal bleeding, or symptomatic bleeding into a critical organ, number of patients [1, 8]: 534 patients
- composite net-clinical-benefit outcome of cardiovascular death, stroke, myocardial infarction, fatal bleeding, or symptomatic bleeding into a critical organ, percentage of patients [1, 8]: 5.9%
- participants reported to have atrial fibrillation who had a stroke [2]: 11 participants
- deaths (death from any cause), number [2, 8]: 378 deaths
- deaths (death from any cause), percentage [2, 8]: 4.1%
- secondary composite outcome of ischemic stroke, myocardial infarction, acute limb ischemia, or death from coronary heart disease, number of patients [2, 8]: 450 patients
- secondary composite outcome of ischemic stroke, myocardial infarction, acute limb ischemia, or death from coronary heart disease, percentage of patients [2, 8]: 4.9%
- secondary outcome of ischemic stroke, myocardial infarction, acute limb ischemia, or cardiovascular death, number of patients [2, 8]: 516 patients
- secondary outcome of ischemic stroke, myocardial infarction, acute limb ischemia, or cardiovascular death, percentage of patients [2, 8]: 5.7%
- primary outcome event of cardiovascular death, stroke, or myocardial infarction, number of patients [2, 8]: 496 patients
- primary outcome event of cardiovascular death, stroke, or myocardial infarction, percentage of patients [2, 8]: 5.4%

SMILES: COC(=O)[C@H](c1ccccc1Cl)N1CCc2sccc2C1 [clopidogrel]
- risk of cardiovascular death or death from any cause vs aspirin [3]: no significant difference
- risk of major adverse cardiovascular events vs aspirin [3]: lower risk

SMILES: O=C(NC[C@H]1CN(c2ccc(N3CCOCC3=O)cc2)C(=O)O1)c1ccc(Cl)s1 [rivaroxaban alone, 5-chloro-N-({(5S)-2-oxo-3-[4-(3-oxo-4-morpholinyl)phenyl]-1,3-oxazolidin-5-yl}methyl)-2-thiophenecarboxamide]
- hazard ratio, major bleeding events (modified ISTH criteria) [4]: 1.51
- net-clinical-benefit outcome compared with aspirin alone (in words) ([1]; rivaroxaban alone 5 mg twice daily vs aspirin alone): not significantly lower; also recorded: did not show a significant difference
- participants reported to have atrial fibrillation who had a stroke [2]: 8 participants
- primary outcome / major adverse cardiovascular events compared with aspirin alone (in words) [2]: did not show a significant difference
- primary outcome / major adverse cardiovascular events compared with aspirin alone (in words) ([2]; listed as Rivaroxaban): not associated with a significant reduction
- primary outcome / major adverse cardiovascular events compared with aspirin alone (in words) ([2]; listed as Rivaroxaban alone): did not result in a significantly lower risk
- hazard ratio for the primary outcome ([2]; compared with aspirin alone, stratified Cox model): 0.90
- primary outcome event of cardiovascular death, stroke, or myocardial infarction, number of patients [2, 8]: 448 patients
- primary outcome event of cardiovascular death, stroke, or myocardial infarction, percentage of patients [2, 8]: 4.9%
- rate of major adverse cardiovascular events vs placebo ([5]; 2.5 mg twice daily or 5 mg twice daily): lower rate
- mortality vs placebo ([5]; 2.5 mg twice daily): lower mortality

SMILES: CCCSc1nc(N[C@@H]2C[C@H]2c2ccc(F)c(F)c2)c2nnn([C@@H]3C[C@H](OCCO)[C@@H](O)[C@H]3O)c2n1 [ticagrelor]
- rate of major adverse cardiovascular events vs clopidogrel [6]: did not result in a significantly lower rate

SMILES: CCOC(=O)N[C@@H]1CC[C@@H]2[C@@H](C1)C[C@H]1C(=O)O[C@H](C)[C@H]1[C@H]2/C=C/c1ccc(-c2cccc(F)c2)cn1 [vorapaxar]
- mortality vs placebo [7]: no significant between-group difference
- rate of major adverse cardiovascular events vs placebo [7]: lower rate
- rate of moderate or severe bleeding vs placebo [7]: higher rate

Source: patent US10828310B2, “Reducing the risk of cardiovascular events” (Bayer Pharma Aktiengesellschaft, priority 2018, dated 2020)
